Measured values from patent publication US20220227776A1, “PRODRUGS OF 1'-S[…]-NUCLEOSIDE ANALOGUES FOR ANTIVIRAL TREATMENT” (Copycat Sciences Inc., priority 2020, published 2022).

Key:
[1] = Thermodynamic solubility at pH 7.4; assay type: physicochemical
Excerpt: (§1) As summarized in Table 8, these studies indicate that CAT002 is an efficient prodrug of GS-441524 that is well-suited for clinical development as an oral agent.

[2] = Human intestinal S9 stability at 37° C.; assay type: in vitro ADME
Excerpt: Across all species tested, CAT002 was efficiently metabolized to the core nucleoside GS-441524 when administered orally, indicating efficient first-pass intestinal or hepatic metabolism. Rapid hydrolysis of CAT002 in human intestinal homogenates indicated intestinal metabolism as the primary mechanism of CAT002 hydrolysis.

Caco-2 = Caco-2 permeability AB/BA; assay type: in vitro ADME; settings: for Caco-2 permeability AB: AB direction; for Caco-2 permeability BA: BA direction; for Caco-2 Efflux: BA/AB
[3] = Phosphate buffer stability at 25° C.; assay type: physicochemical
Excerpt: as §1

[4] = Human plasma stability at 37° C.
[5] = Plasma pharmacokinetics of GS-441524 following oral administration of CAT002 in Sprague-Dawley rats; assay type: in vivo
Method: CAT002 (16 mg/kg; 10.8 mg/kg-equivalent of the parent nucleoside, GS-441524) was formulated in saline (1.60 mg/mL) and orally administered to fasted male rats (N=2). Whole blood samples were collected at the following timepoints (hours) in K2EDTA collection tubes: 0.25, 0.50, 1.00, 2.00, 4.00, 8.00, 24.0, 48.0.
(§2) Sample preparation. Plasma was isolated by protein precipitation in a 96-well plate at 0° C. An aliquot of 20 μL unknown sample, calibration standard, quality control and dilution quality control (if have), single blank, and double blank sample was added to the 96-well plate respectively. Each sample (except the double blank) was quenched with 100 μL of IS1 respectively (double blank sample was quenched with 100 μL of MeOH), and then the mixture was vortex-mixed for 10 min at 800 rpm and centrifuged for 15 min at 3220×g, 4° C. An aliquot of 60 μL supernatant was transferred to another clean 96-well plate and centrifuged for 5 min at 3220×g, 4° C., then the supernatant was directly injected for LC-MS/MS analysis.
LC-MS/MS analysis. Metabolites of interest (CAT002, GS-441524) were then quantified by LC-MS/MS (SCIEX LC-MS/MS-BZ Triple Quad 6500+, ACQUITY UPLC HSS T3 1.8 μm 2.1×50 mm Column; mobile phase A: 0.1% formic acid in water, mobile phase B: 0.1% formic acid in acetonitrile; flow rate: 0.65 mL/min.). Gradient conditions were as follows: 2% B over 0.2 minutes, 2-25% B from 0.2-1.2 minutes, 25-95% from 1.2-1.4 minutes, 95% from 1.4-2.1 minutes, 95-2% from 2.1-2.11 minutes, 2% from 2.11-2.2 minutes). The lower limit of quantification for both CAT002 and GS-441524 was 2.00 ng/mL. Data for both CAT002 and GS-441524 were fitted and analyzed by Phoenix NonWinLin 6.3 using noncompartmental model 200 (extravascular output). Data on directly administered oral GS-441524 were obtained from the NCATS OpenData Portal and are plotted alongside data generated from CAT002 for comparison (FIG. 1).

[6] = Human hepatic microsomal stability (+/- mixed cofactors); assay type: in vitro ADME
[7] = Plasma pharmacokinetics of GS-441524 following oral administration of CAT002 in humans; assay type: in vivo
Method: CAT002 (HCl salt) was administered as excipient-less gelatin capsules to healthy participants (N=2) in the fasted state. Participant 1 (Subject 1) is a healthy person and Participant 2 (Subject 2) is a healthy person. Both Participants 1 and 2 were administered 5.4 mg/kg CAT002 (3 mg/kg-equivalent GS-441524). Whole blood samples were collected at the following timepoints (hours) in K2EDTA collection tubes: 0.5, 1, 3.6, 8, 24, 43. Plasma was isolated by centrifugation and samples were stored at −78° C. before analysis.
In-life PK of orally administered GS-441524. GS-441524 was administered as an excipient-less gelatin capsule (200 mg) to Participant 1 in the fasted state. Whole blood samples were collected at the following timepoints (hours) in K2EDTA collection tubes: 0.5, 1, 3.6, 8, 24, 43. Plasma was isolated by centrifugation and samples were stored at −78° C. before analysis. Sample preparation. An aliquot of 20 μL unknown sample, calibration standard, quality control and dilution quality control (if have), single blank, and double blank sample was added to the 96-well plate respectively. Each sample (except the double blank) was quenched with 100 μL of IS1 respectively (double blank sample was quenched with 100 μL of MeOH), and then the mixture was vortex-mixed for 10 min at 800 rpm and centrifuged for 15 min at 3220×g, 4° C. An aliquot of 60 μL supernatant was transferred to another clean 96-well plate and centrifuged for 5 min at 3220×g, 4° C., then the supernatant was directly injected for LC-MS/MS analysis.
LC-MS/MS analysis. Metabolites of interest (GS-441524) were then quantified by LC-MS/MS (SCIEX LC-MS/MS-BZ Triple Quad 6500+, ACQUITY UPLC HSS T3 1.8 μm 2.1×50 mm Column; mobile phase A: 0.1% formic acid in water, mobile phase B: 0.1% formic acid in acetonitrile; flow rate: 0.65 mL/min.). […] The lower limit of quantification was 1.00 ng/mL. Data for both CAT002 and GS-441524 were fitted and analyzed by Phoenix NonWinLin 6.3 using noncompartmental model 200 (extravascular output) (FIG. 3).

[8] = Plasma pharmacokinetics of GS-441524 following oral administration of CAT002 in cynomolgus macaques; assay type: in vivo
Method: CAT002 (7.8 mg/kg; 4.9 mg/kg-equivalent of the parent nucleoside, GS-441524) was formulated in saline (1.60 mg/mL) and orally administered to fasted male cynomolgus macaques (N=2). GS-441524 is in turn intracellularly converted to the bioactive ATP analogue, GS-443902. GS-443902 is known to have an antiviral activity and affinity for viral polymerase. See Gordon et al. JBC 2020; 295(20): 6785-6797; Tchesnokov et al. JBC 2020: 295(47):16156-16165; Yin et al. Science 2020: 368(6498): 1499-1504. Whole blood samples were collected at the following timepoints (hours) in K2EDTA collection tubes: 0.25, 0.50, 1.00, 2.00, 4.00, 8.00, 24.0, 48.0.
as §2
LC-MS/MS analysis. Metabolites of interest (CAT002, GS-441524) were then quantified by LC-MS/MS (SCIEX LC-MS/MS-BZ Triple Quad 6500+, ACQUITY UPLC HSS T3 1.8 μm 2.1×50 mm Column; mobile phase A: 0.1% formic acid in water, mobile phase B: 0.1% formic acid in acetonitrile; flow rate: 0.65 mL/min.). Gradient conditions were as follows: 2% B over 0.2 minutes, 2-25% B from 0.2-1.2 minutes, 25-95% from 1.2-1.4 minutes, 95% from 1.4-2.1 minutes, 95-2% from 2.1-2.11 minutes, 2% from 2.11-2.2 minutes). The lower limit of quantification for 1.00 ng/mL for CAT002 and 2.00 ng/mL for GS-441524. Data for both CAT002 and GS-441524 were fitted and analyzed by Phoenix NonWinLin 6.3 using noncompartmental model 200 (extravascular output). […]

[9] = oral CAT002, analyte GS-441524 in plasma
[10] = oral CAT002 in aqueous solution

N#C[C@@]1(c2ccc3c(N)ncnn23)O[C@H](CO)[C@@H](O)[C@H]1O [GS-441524, reference compound]
Thermodynamic solubility at pH 7.4 [1]: 0.04 mg/mL
Human intestinal S9 stability at 37° C. [2]: Stable
Caco-2 permeability AB (Caco-2): 0.17 cm/sec•10^6
Caco-2 permeability BA (Caco-2): 2.1 cm/sec•10^6
Caco-2 Efflux (Caco-2): 12.4
Phosphate buffer stability at 25° C., T1/2 ([3]; pH not specified): Stable
Human plasma stability at 37° C. ([4]; plasma type not specified): Stable

((2R,3S,4R,5R)-5-(4-aminopyrrolo[2,1-f][1,2,4]triazin-7-yl)-5-cyano-3,4-dihydroxytetrahydrofuran-2-yl)methyl D-valinate [CAT002]
plasma levels of CAT002 (for determining its half-life) ([5]; oral CAT002, analyte CAT002): either too low or below the limit of quantification
half-life of GS-441524 derived from CAT002 [5, 9]: 3 h
plasma exposure to GS-441524 with respect to Cmax, fold higher than previously reported for equivalent doses of oral GS-441524 in organic solution [5, 10]: approximately 6 fold
aqueous solubility at neutral pH, fold greater than GS-441524 ([1]; neutral pH, relative to GS-441524): 87 fold
Thermodynamic solubility at pH 7.4 [1]: 3.4 mg/mL
Human hepatic microsomal stability, T1/2 [6]: 67 minutes (− cofactors)
Human intestinal S9 stability at 37° C. [2]: 19.5 min
Caco-2 permeability AB (Caco-2): 0.55 cm/sec•10^6
Caco-2 permeability BA (Caco-2): 0.45 cm/sec•10^6
Caco-2 Efflux (Caco-2): 0.8
Phosphate buffer stability at 25° C., T1/2 ([3]; pH 3.0): pH 3.0: Stable
Phosphate buffer stability at 25° C., T1/2 ([3]; pH 7.4): pH 7.4: 30 hours
plasma levels of CAT002 (for determining its half-life) ([7]; oral CAT002, analyte CAT002): either too low or below the limit of quantification
half-life of GS-441524 derived from CAT002 [7, 9]: 7.3 h
plasma exposure of the core nucleoside with respect to Cmax, fold higher than oral solution of GS-441524 at an equivalent per-molar dose ([7]; oral CAT002 powder-in-capsule formulation): approximately 4 fold
plasma levels of CAT002 (for determining its half-life) ([8]; oral CAT002, analyte CAT002): either too low or below the limit of quantification
half-life of GS-441524 derived from CAT002 [8, 9]: 8 h
plasma exposure to GS-441524 with respect to Cmax, fold higher than previously reported for equivalent doses of oral GS-441524 in organic solution [8, 10]: approximately 6 fold
Human plasma stability at 37° C. ([4]; EDTA plasma): EDTA plasma: 195 minutes
Human plasma stability at 37° C. ([4]; Heparin plasma): Heparin plasma: >289.1 minutes
